{
  "source": "patent EP0527720B1",
  "about": "“THERAPEUTIC AGENTS” (The Boots Company PLC, priority 1989, dated 1990)",
  "system": "heart failure patients",
  "assay": "Earlier clinical studies of flosequinan 150 mg alone in heart failure patients",
  "format": "in vivo, human",
  "details": "heart failure patients receiving 150 mg doses of flosequinan",
  "source_text": "An increase of heart rate is generally an undesirable effect in the treatment of heart failure since additional stress is placed on the failing heart. Furthermore, patients receiving such therapy may report adverse drug events associated with the increase in heart rate such as tachycardia and palpitations. These undesirable side effects of vasodilatory drug therapy effectively limit the maximum dose of the drug which can be safely administered.\nThis was particularly remarkable since no increase in heart rate (HR) was apparent. This implies that the increase in cardiac output (CO) evident after coadministration of captopril and flosequinan is due to an increase in stroke volume and not due, at least in part, to an increase in heart rate (HR) as expected.",
  "data": [
    {"smiles": "Cn1cc([S+](C)[O-])c(=O)c2ccc(F)cc21", "note": "(stereo not shown) [flosequinan, 7-fluoro-1-methyl-3-methylsulphinyl-4-quinolone]", "values": [
      {"measurement": "heart rate", "value": "an increase of heart rate occurs"}
    ]}
  ]
}
